In ChEMBL document CHEMBL3714742, “Pyrimido (4,5-b) indole derivatives” (2003):
Calls of active or inactive are those of the source. How the calls were made is not given here.

Experiments:
[1] = target: T1, Dual specificity mitogen-activated protein kinase kinase 7 (Homo sapiens, UniProt O14733); test: Inhibition of GST-tagged human MKK7 expressed in Escherichia coli (BL21(DE3) pLysS) co-expressing human MEKK catalytic domain using biotinylated and GST-tagged rat GST-KN-SAPKalpha substrate incubated for 1 hr by time-resolved fluorescence based assay
T1 sequence (O14733 whole entry): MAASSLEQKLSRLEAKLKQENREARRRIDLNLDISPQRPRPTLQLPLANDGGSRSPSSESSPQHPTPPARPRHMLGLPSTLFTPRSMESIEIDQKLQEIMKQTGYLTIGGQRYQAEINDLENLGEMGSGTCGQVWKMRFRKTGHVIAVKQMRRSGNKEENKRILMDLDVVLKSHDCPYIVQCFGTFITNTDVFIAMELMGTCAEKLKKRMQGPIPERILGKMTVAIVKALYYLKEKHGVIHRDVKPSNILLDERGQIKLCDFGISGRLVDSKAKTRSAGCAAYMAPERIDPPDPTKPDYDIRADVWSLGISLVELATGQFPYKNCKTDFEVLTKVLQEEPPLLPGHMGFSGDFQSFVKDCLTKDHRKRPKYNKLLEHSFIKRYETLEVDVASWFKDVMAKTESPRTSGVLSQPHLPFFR

Mus musculus [2] = test: Inhibition of anti-CD3 antibody-induced IL2 production in Balb/c mouse dosed intravenously 5 mins before anti-CD3 antibody injection and measured 2 hrs post-challenge by ELISA; format: functional, organism-based
Mus musculus [3] = test: Inhibition of anti-CD3 antibody-induced IL4 production in Balb/c mouse dosed intravenously 5 mins before anti-CD3 antibody injection and measured 2 hrs post-challenge by ELISA; format: functional, organism-based
Mus musculus [4] = test: Inhibition of anti-CD3 antibody-induced IFNgamma production in Balb/c mouse dosed intravenously 5 mins before anti-CD3 antibody injection and measured 2 hrs post-challenge by ELISA; format: functional, organism-based

SMILES | IC50 [1] [nM] | inhibition (Mus musculus [2]) | inhibition (Mus musculus [3]) | inhibition (Mus musculus [4])
NC(=O)c1ccc2[nH]c3ncnc(NC4CCCCC4)c3c2c1 | < 1000 | Active | Active | Active
CCCN(CCC)c1ncnc2[nH]c3ccc(C(N)=O)cc3c12 | < 1000 | Active | Active | Active
NCCCNc1ncnc2[nH]c3ccc(C(N)=O)cc3c12 | < 1000 | Active | Active | Active
NC(=O)c1ccc2[nH]c3ncnc(N4CCCCC4)c3c2c1 | < 1000 | Active | Active | Active
CN(c1nc(N)nc2[nH]c3ccc(O)cc3c12)C1CCCCC1 | < 1000 | Active | Active | Active
N[C@H]1CCN(c2ncnc3[nH]c4ccc(O)cc4c23)C1 | < 1000 | Active | Active | Active
CN(CCO)c1ncnc2[nH]c3ccc(C(N)=O)cc3c12 | < 1000 | Active | Active | Active
Cc1nc(NCCO)c2c(n1)[nH]c1ccc(O)cc12 | 1000 | Active | Active | Active
Nc1nc(NC2CCCC2)c2c(n1)[nH]c1ccc(O)cc12 | < 1000 | Active | Active | Active
CC(C)N(C)c1ncnc2[nH]c3ccc(O)cc3c12 | < 1000 | Active | Active | Active
COc1cc2[nH]c3nc(N)nc(N4CCOCC4)c3c2cc1OC | 1000 | Active | Active | Active
Oc1ccc2[nH]c3ncnc(N4CCC(O)CC4)c3c2c1 | < 1000 | Active | Active | Active
NC(=O)c1ccc2[nH]c3ncnc(N4CCCCCC4)c3c2c1 | < 1000 | Active | Active | Active
CNC1CCN(c2ncnc3[nH]c4ccc(C(N)=O)cc4c23)C1 (centres undefined) | < 1000 | Active | Active | Active
NC(=O)c1ccc2[nH]c3ncnc(N4CCC(O)(Cc5ccccc5)CC4)c3c2c1 | < 1000 | Active | Active | Active
OC[C@H](Cc1ccccc1)Nc1ncnc2[nH]c3ccc(O)cc3c12 | < 1000 | Active | Active | Active
Nc1nc(N2CCCCC2)c2c(n1)[nH]c1ccc(O)cc12 | < 1000 | Active | Active | Active
NC(=O)c1ccc2[nH]c3ncnc(N4CCCCC4CO)c3c2c1 (centres undefined) | < 1000 | Active | Active | Active
Oc1ccc2[nH]c3ncnc(N4CCCC4)c3c2c1 | < 1000 | Active | Active | Active
Nc1nc(N2CCCC(O)C2)c2c(n1)[nH]c1ccc(O)cc12 (centres undefined) | < 1000 | Active | Active | Active
Cc1nc(N2CCC(O)CC2)c2c(n1)[nH]c1ccc(O)cc12 | < 1000 | Active | Active | Active
NC(=O)c1ccc2[nH]c3ncnc(N4CCC(C(=O)O)CC4)c3c2c1 | < 1000 | Active | Active | Active
COC(=O)c1ccc2[nH]c3nc(C)nc(N4CCCCC4)c3c2c1 | < 1000 | Active | Active | Active
CN(Cc1ccccc1)c1nc(N)nc2[nH]c3ccc(O)cc3c12 | < 1000 | Active | Active | Active
OCC1CCCCN1c1ncnc2[nH]c3ccc(O)cc3c12 (centres undefined) | < 1000 | Active | Active | Active
OCC1CCN(c2ncnc3[nH]c4ccc(O)cc4c23)CC1 | < 1000 | Active | Active | Active

SMILES | IC50 [1] [nM] | inhibition (Mus musculus [2]) | inhibition (Mus musculus [3]) | inhibition (Mus musculus [4])
Oc1ccc2[nH]c3ncnc(N4CCNCC4)c3c2c1 | < 1000 | Active | Active | Active
Oc1ccc2[nH]c3ncnc(NC4CCOCC4)c3c2c1 | < 1000 | Active | Active | Active
Nc1nc(N2CCCCC2)c2c(n1)[nH]c1ccc(C(=O)O)cc12 | < 1000 | Active | Active | Active
NC(=O)c1ccc2[nH]c3ncnc(N4CCC(N)C4)c3c2c1 (centres undefined) | < 1000 | Active | Active | Active
Nc1nc(N2CCNCC2)c2c(n1)[nH]c1ccc(O)cc12 | 1000 | Active | Active | Active
CCN(CCO)c1ncnc2[nH]c3ccc(O)cc3c12 | < 1000 | Active | Active | Active
NC(=O)C1CCCN(c2ncnc3[nH]c4ccc(O)cc4c23)C1 (centres undefined) | < 1000 | Active | Active | Active
Cc1ccc2[nH]c3nc(N)nc(N4CCCCC4)c3c2c1 | < 1000 | Active | Active | Active
Nc1nc(N2CCC(O)CC2)c2c(n1)[nH]c1ccc(O)cc12 | < 1000 | Active | Active | Active
NC(=O)c1ccc2[nH]c3ncnc(N4CCCC(O)C4)c3c2c1 (centres undefined) | < 1000 | Active | Active | Active
COc1cc2[nH]c3nc(N)nc(N4CCCCC4)c3c2cc1OC | 1000 | Active | Active | Active
CN(CCO)c1ncnc2[nH]c3ccc(O)cc3c12 | < 1000 | Active | Active | Active
CC(C)(C)OC(=O)N1CCC(Nc2ncnc3[nH]c4ccc(O)cc4c23)CC1 | < 1000 | Active | Active | Active
Cc1nc(N2CCCCCC2)c2c(n1)[nH]c1ccc(O)cc12 | < 1000 | Active | Active | Active
Nc1nc(N2CCCCC2)c2c(n1)[nH]c1ccc(Cl)cc12 | 1000 | Active | Active | Active
Cc1nc(N2CCCCC2C)c2c(n1)[nH]c1ccc(O)cc12 (centres undefined) | < 1000 | Active | Active | Active
CN(c1ncnc2[nH]c3ccc(O)cc3c12)C1CCCCC1 | < 1000 | Active | Active | Active
O=C(O)CCCCCN1CCN(c2ncnc3[nH]c4ccc(O)cc4c23)CC1 | 1000 | Active | Active | Active
NCCNc1ncnc2[nH]c3ccc(O)cc3c12 | < 1000 | Active | Active | Active
Oc1ccc2[nH]c3ncnc(N4CCCC(O)C4)c3c2c1 (centres undefined) | < 1000 | Active | Active | Active
COc1ccc2[nH]c3nc(N)nc(N4CCOCC4)c3c2c1 | < 1000 | Active | Active | Active
CC1CCN(c2ncnc3[nH]c4ccc(C(N)=O)cc4c23)CC1 | < 1000 | Active | Active | Active
Oc1ccc2[nH]c3ncnc(NC4CCCCCC4)c3c2c1 | < 1000 | Active | Active | Active
C[C@H](CO)Nc1ncnc2[nH]c3ccc(O)cc3c12 | < 1000 | Active | Active | Active
Nc1nc(N(Cc2ccccc2)Cc2ccccc2)c2c(n1)[nH]c1ccc(O)cc12 | > 10000 | Active | Active | Active
